Blank lines part the entries; values can stand above or below the compound they belong to.
Experiments:
HCLE cells = assay: Flow cytometry cell volume (shrunken cells) under hyperosmotic stress; format: cell-based, human; details: 16 h; for population of shrunken cells: 500 mOsm + 10 mM, flow cytometry
From the text: Forward scatter of the laser light produced by the flow cytometer is proportional to the volume of the cell. This principle was used to analyse the osmoprotective effect of betaine in restoring the cell volume which is adversely affected due to hypertonicity. Cell populations were gated such that the population of cells showing a greater forward scatter (FSC) constituted the percentage of cells with a volume equal to that of a cell under isotonic conditions. On the other hand, the proportion of side scatter in a flow cytometer represents the cell structure complexity and granularity. […] Cells were exposed to isotonic media (300 mOsM), hyperosmotic media (500 mOsM) and hyperosmotic media containing betaine (500 mOsM media+10 mM betaine) for 16 h after which they were analysed using flow cytometer.
Cell volume and Live/Dead staining via flow cytometry were performed using the Attune® Acoustic focusing Cytometer (Life Technologies™ Applied Biosystems). Annexin V and PI kit (Invitrogen™) was used to analyse the non-apoptotic, and the early and late apoptotic cells. Staining was performed as per manufacturer's instructions. Analysis of Annexin staining was conducted using the blue/violet laser with excitation/emission spectra of 480/500 nm (20 mW) and the PI staining analysis was conducted using blue/red laser with an excitation/emission spectra of 490/635 nm.
Cultured HCLE cells were exposed to culture medium with or without carnitine (10 mM) at 300 mOsm (isotonic) and 500 mOsm (hyperosmotic) for 16 h. Flow cytometry was performed to determine the cell volume changes based on the forward and side scatter values detected.

TNF-α = TNF-α production by HCLE cells in hyperosmolar medium (ELISA); format: cell-based, human; details: 10 mM, 500 mOsm, 16 h, vs hyperosmolar medium without osmolyte
Description: Enzyme-linked immunosorbent assay (ELISA) was used to quantify TNF-α. The culture supernatants were collected, centrifuged at 1500 rpm for 10 min to remove cellular debris and stored at −80° C. until processed. Assays were performed according to manufacturer's protocol (R&D Systems, Minneapolis, Minn.).
(§1) Cultured human corneal limbal epithelial (HCLE) cells were exposed to culture medium with or without carnitine (10 mM) at 300 mOsm (isotonic), 450 mOsm (moderate), and 500 mOsm (hyperosmotic) for 16 h. Induction of apoptosis was detected by quantification of the proteolytic activity of caspase-8, caspase-9, or caspase-3/7 using caspase activity assays, and production of tumor necrosis factor (TNF)-α, a known apoptosis inducer, using ELISA. Annexin V and Propidium iodine (PI) staining was performed to detect the percentage of apoptotic cells using confocal microscopy and flow cytometry.

caspase-8 = assay: Caspase-Glo luminescent caspase activity in HCLE under hyperosmotic stress; format: cell-based, human; details: 16 h; for reduction of caspase-8 activity: 500 mOsm
Description: (§2) Caspase-3/7, -8 and -9 activities were assayed using a luminescent assay kit (Promega, Madison, Wis.) according to the manufacturer's instructions. Briefly, 100 μL of Caspase-Glo-3/7, -8 and -9 reagents were added to HCLE at maintained on plastic at 2×10^4/cm^2, mixed and incubated for one hour at room temperature. Luminescence was measured using a SpectraFluor Plus microplate reader.
as §1

caspase-3/7 = assay: as above; format: cell-based, human; details: 16 h
Description: as §2
as §1, with “Cultured human corneal limbal epithelial (HCLE) cells were exposed to culture medium with or without carnitine (10 mM) at 300 mOsm (isotonic), 450 mOsm (moderate), and 500 mOsm (hyperosmotic) for 16 h.” left out

caspase-9 = assay: as above; format: cell-based, human; details: 16 h
Description: as §2
as §1, with “Cultured human corneal limbal epithelial (HCLE) cells were exposed to culture medium with or without carnitine (10 mM) at 300 mOsm (isotonic), 450 mOsm (moderate), and 500 mOsm (hyperosmotic) for 16 h.” left out

[1] = test system: ICES-induced murine dry eye model; assay: Corneal fluorescein staining in ICES-induced murine dry eye model; format: in vivo, C57BL/6 mice; details: for corneal staining from Day 21 to Day 35: Schedule 2, within-group change
From the text: A total of 110 female C57BL/6 mice (age 4-6 weeks, from the Animal Breeding Unit of Wenzhou Medical College) were used in the study. These mice were carefully selected out of 350 mice by clinical examination using slit-lamp microscopy and corneal staining. Only those healthy mice with no corneal infections, infiltration or leukom, and with total scores of corneal fluorescein staining of less than 10, were selected for the study.
This study used the ICES-induced murine dry eye model in which relative humidity, airflow and temperature were maintained at 15.7±3.2% (mean±SD), 2.1±0.2 m/s and 21-24° C., respectively, and mice began developing dry eye conditions similar to those in humans from Day 21 post-housing (Chen et al A Murine Model of Dry Eye Induced by an Intelligently Controlled Environmental System. Investigative Ophthalmology & Visual Science, 2008: 49(4):1386-1391). The relative humidity and temperature of ICES systems were monitored daily.
Mice in different groups were labelled using ear marks. The mice were housed in cages (maximum of five animals per cage) and two independent cages were placed in each ICES system. Two schedules were used for topical administration of test compounds, Betaine (0.234% (10 mM) in sterile PBS) or Carnitine (0.25% (10 mM) in sterile PBS), or sterile PBS as a control. Mice without any topical treatment were used as another control. In the first schedule, compounds were administered to mice at the beginning of their housing in ICES (Schedule 1) to study the effect of these compounds on the development of dry eye. In the second schedule compound administration began after mice had been housed in ICES for 21 days (Schedule 2), by which time the dry eye condition had been developed (Chen et al. IOVS 2008), to study the effect of these compounds on treatment of dry eye. Compounds were administered topically to both eyes of the animal. The compound solution made in PBS was topically administered four times daily for up to a total of 35 days for Schedule 1, or 14 days for Schedule 2, during which the mice remained housed in ICES.
Four (4×) mice in each cage received individual treatment: A, B, C, D where A=Betaine (10 mM in PBS); B=Carnitine (10 mM in PBS); C=PBS only; D=No treatment.
The cornea was examined using slit-lamp microscopy with cobalt blue light immediately after fluorescein instillation. The stained area was assessed and graded using the 2007 Dry Eye Work Shop (DEW) recommended grading system. The mouse corneas were rated ranging from 0 to 4 with the cornea surface divided into five regions (0 dot, Grade 0; 1-5 dots, Grade 1; 6-15 dots, Grade 2; 16-30 dots, Grade 3; and […], Grade 4). The total score from the five regions was recorded.

[2] = test system: human corneal epithelial cell; assay: Evaporative drying culture model, Annexin V/PI apoptotic/necrotic cells; format: cell-based; details: 0.25% in culture medium, 4 hrs evaporative drying, 34° C.
Description: A in vitro human corneal epithelial cell culture model was used where cells were cultured under a slow drying condition with the culture medium slowly evaporated over the time period of 4-4.5 hours at 34° C. (the temperature of human eyes) to mimic tear film evaporation.

[3] = Schedule 1, Day 14, 10 mM in PBS topically four times daily
[4] = Schedule 1, Day 21, 10 mM in PBS topically four times daily

SMILES: C[N+](C)(C)CC(=O)[O-] [betaine, trimethylglycine]
- percentage of healthy (normal volume) cells (HCLE cells; 500 mOsm + 10 mM vs 500 mOsm): significantly increased
- population of shrunken cells (HCLE cells): 11.01%
- reduction in TNF-α levels (TNF-α): 40%
- reduction of caspase-8 activity (caspase-8; 5 mM): 2- to 3 fold
- reduction of caspase-8 activity (caspase-8; 10 mM): 4- to 5.2 fold
- reduction of caspase-3/7 activity (caspase-3/7; 5 mM, 500 mOsm): 2- to 3 fold
- reduction of caspase-3/7 activity (caspase-3/7; 10 mM, 500 mOsm): 4- to 5.2 fold
- reduction of caspase-9 activity (caspase-9; 5 mM, 500 mOsm): 2- to 3 fold
- reduction of caspase-9 activity (caspase-9; 10 mM, 500 mOsm): 4- to 5.2 fold
- corneal staining vs control C (PBS only) or D (no treatment) [1, 3]: statistically significant reduction
- corneal staining vs control C (PBS only) or D (no treatment) [1, 4]: statistically significant reduction
- corneal staining from Day 21 to Day 35 [1]: statistically significant reduction

- change in Caspase-8 activity (in words) (caspase-8; 10 mM, hypertonic medium): minimum or no visible decline
- change in Caspase-3/7 activity (in words) (caspase-3/7; 10 mM, hypertonic medium): significant lowering
- change in Caspase-9 activity (in words) (caspase-9; 10 mM, hypertonic medium): significant lowering
SMILES: C[N+](C)(C)CC(O)CC(=O)[O-] (centres unmarked) [carnitine, 3-hydroxy-4-(trimethylazaniumyl)butanoate]
- population of shrunken cells (HCLE cells): ~15%
- population of shrunken cells (HCLE cells; listed as L-Carnitine): 18.01%
- reduction in TNF-α levels (TNF-α): 25%
- decreasing trend for caspase-3/7 activities (caspase-3/7; 10 mM, 500 mOsm): 20%
- reduction in cellular caspase-9 activities (caspase-9; 10 mM, 500 mOsm): 33%
- corneal staining vs control C (PBS only) or D (no treatment) [1, 3]: statistically significant reduction
- corneal staining vs control C (PBS only) or D (no treatment) [1, 4]: statistically significant reduction
- corneal staining vs control C or D ([1]; Schedule 1, Day 35, 10 mM in PBS topically four times daily): reduced corneal staining
- corneal staining vs controls C or D ([1]; Schedule 2 (treatment from Day 22 after dry eye developed), Day 35): statistically significant reduction
- corneal staining from Day 21 to Day 35 [1]: statistically significant reduction
- cellular damage (apoptotic and necrotic cells) caused by evaporation-increased osmolarity [2]: minimised the cellular damage

Reference: patent US10912752B2, “Methods and compositions for reducing ocular discomfort” (Brien Holden Vision Institute Limited, priority 2012, dated 2021)
